Laboratory results reported in patent US8211895B2, “Capped pyrazinoylguanidine sodium channel blockers” (Parion Sciences, Inc., priority 2005, dated 2012).

Legend:
[1] = test system: airway epithelial sodium currents in canine bronchial epithelia (ENaC); experiment: In vitro measure of sodium channel blocking activity (short circuit current, Ussing chambers); format: cell-based; details: potency in canine bronchial epithelia, reported as fold-enhancement relative to amiloride
Method: In Vitro Measure of Sodium Channel Blocking Activity and Reversibility One assay used to assess mechanism of action and/or potency of the compounds of the present invention involves the determination of lumenal drug inhibition of airway epithelial sodium currents measured under short circuit current (ISC) using airway epithelial monolayers mounted in Ussing chambers. Cells obtained from freshly excised human, dog, sheep or rodent airways are seeded onto porous 0.4 micron Snapwell™ Inserts (CoStar), cultured at air-liquid interface (ALI) conditions in hormonally defined media, and assayed for sodium transport activity (ISC) while bathed in Krebs Bicarbonate Ringer (KBR) in Using chambers. All test drug additions are to the lumenal bath with half-log dose addition protocols (from 1×10^−11 M to 3×10^−5 M), and the cumulative change in ISC (inhibition) recorded. All drugs are prepared in dimethyl sulfoxide as stock solutions at a concentration of 1×10^−2 M and stored at −20° C. Eight preparations are typically run in parallel; two preparations per run incorporate amiloride and/or benzamil as positive controls. After the maximal concentration ([…]) is administered, the lumenal bath is exchanged three times with fresh drug-free KBR solution, and the resultant ISC measured after each wash for approximately 5 minutes in duration. Reversibility is defined as the percent return to the baseline value for sodium current after the third wash. All data from the voltage clamps are collected via a computer interface and analyzed off-line. Dose-effect relationships for all compounds are considered and analyzed by the Prism 3.0 program. IC50 values, maximal effective concentrations, and reversibility are calculated and compared to amiloride and benzamil as positive controls. […] The results for the compounds of the present invention are reported as fold-enhancement values relative to amiloride.

| SMILES | melting point | Fold Amiloride [1] |
| --- | --- | --- |
| NC(=O)CN(CCOc1ccc(CCCCNC(N)=NC(=O)c2nc(Cl)c(N)nc2N)cc1)CC(N)=O [ALB 28062, 2-{Carbamoylmethyl-[2-(4-{4-[N′-(3,5-diamino-6-chloropyrazine-2-carbonyl)-guanidino]butyl}phenoxy)ethyl]amino}acetamide] | 98 to 100 °C (dec.) |  |
| COC(=O)CC(CC(=O)OC)NCCOc1ccc(CCCCNC(N)=NC(=O)c2nc(Cl)c(N)nc2N)cc1 [ALB 28588, 3-[2-(4-{4-[N′-(3,5-Diamino-6-chloropyrazine-2-carbonyl)guanidino]butyl}phenoxy)ethylamino]pentanedioic acid dimethyl ester] | 84 to 88 °C |  |
| NC(=O)CNCCOc1ccc(CCCCNC(N)=NC(=O)c2nc(Cl)c(N)nc2N)cc1 [ALB 28683, 2-[2-(4-{4-[N′-(3,5-Diamino-6-chloropyrazine-2-carbonyl)guanidino]butyl}-phenoxy)ethylamino]acetamide] | 92 to 94 °C (dec.) |  |
| NC(=NC(=O)c1nc(Cl)c(N)nc1N)NCCCCc1ccc(OCCNCC(=O)O)cc1 [ALB 28897, [2-(4-{4-[N′-(3,5-Diamino-6-chloropyrazine-2-carbonyl)guanidino]butyl}-phenoxy)ethylamino]acetic acid] | 110 to 112 °C (dec.) |  |
| N=C(NCCCCc1ccc(OCCN(CC(N)=O)CC(N)=O)cc1)NC(=O)c1nc(Cl)c(N)nc1N [Compound 1] |  | 77 |
| N=C(NCCCCc1ccc(OCCN(CC(=O)O)CC(=O)O)cc1)NC(=O)c1nc(Cl)c(N)nc1N [Compound 2] |  | 16 |
| N=C(NCCCCc1ccc(OCCNCC(N)=O)cc1)NC(=O)c1nc(Cl)c(N)nc1N [Compound 3] |  | 10 |
| COC(=O)CC(CC(=O)OC)NCCOc1ccc(CCCCNC(=N)NC(=O)c2nc(Cl)c(N)nc2N)cc1 [Compound 4] |  | 81 |
